Assay: Cat free-choice feeding study: daily food intake
Format: in vivo
Details: overweight cats
Procedure: All feeding studies were conducted from Feb. 26, 1998 to Sep. 17, 1998 at Summit Ridge Farms, Susquehanna, Pa. All were adult domestic short-haired cats. Most were quite old, as they had been in the colony 3 to 14 years and were thought to have been 1 to 4 years of age when they were obtained (Table 11). Just before beginning the study, all cats were given a thorough physical examination by a veterinarian. […] Each cat's current and estimated optimum weight were determined during this exam. […] All cats were housed individually with 12 hr light and dark cycles, and at a temperature of 60 to 85° F. and humidity of 30 to 70%. Food bowls, water bowls and litter boxes were emptied and sanitized daily. Water and the diet being fed were always available for free choice consumption except the night before the cats were to be weighed, when food bowls were removed. The amount of diet consumed was recorded, diet uneaten discarded and fresh diet fed daily. Weekly, following an overnight (14-hr) fast, each cat was weighed. Each cat was initially fed the non-jojoba containing diet FC-0 for 4 weeks, or until it was 14% or more over its estimated optimum weight, at which time it was fed either the diet containing 4% (FC-2) or 8% (FC-3) jojoba. Cats whose weight decreased by more than 4.6% in 1 week, or 6% in 2 weeks, were changed to the next lower jojoba-containing diet. […] When a cat was within 2.0% of its optimum weight, it was changed to a lower jojoba-containing diet; either that containing 2% or 4% (FC-1 or FC-2). If optimum body weight wasn't maintained when this diet was fed, the cat was changed to a higher jojoba-containing diet if it had gained weight and a lower jojoba-containing diet if it had lost weight. When the cat's weight had been maintained within 4% of its optimum for 4 weeks while eating the same diet, it was given a thorough physical exam by a veterinarian and removed from the study.

Compound: CO[C@H]1[C@@H](OC)C[C@@H](O[C@@H]2O[C@H](CO)[C@@H](O)[C@H](O)[C@H]2O)/C(=C\C#N)[C@@H]1O [Simmondsin, simmondsin]
- Percent Decrease in Food Intake (0.12% bioactive simmondsin activity in diet): 17.8%
- Percent Decrease in Food Intake (0.24% bioactive simmondsin activity in diet): 30.7%
- Percent Decrease in Food Intake (0.49% bioactive simmondsin activity in diet): 45.9%
- Percent Decrease in Food Intake (0.73% bioactive simmondsin activity in diet): 49.2%

Reference: patent publication USRE38167E1, “Weight reduction method for cats and other pets” (International Flora Technologies Ltd, priority 1996, dated 2003)
